Experimental data published in ChEMBL document CHEMBL4699435, “Synthesis and biological screening of a library of macamides as TNF-alpha inhibitors” (RSC Med Chem, 2020).
pIC50: −log10 of the molar value.

Assays:
[1] = Cytotoxicity against human THP-1 cells assessed as reduction in cell viability incubated for 72 hrs by MTT assay; type: cell-based
[2] = tested on: THP-1; test: Inhibition of LPS-induced TNFalpha production in human THP-1 cells incubated for 2 hrs followed by LPS stimulation and measured after 12 hrs by ELISA; type: functional, cell-based
[3] = tested on: THP-1; test: Potency index, ratio of IC50 of N-(2-hydroxyethyl)-7Z,10Z,13Z,16Z-docosatetraenamide to IC50 of compound for inhibition of LPS-induced TNFalpha production in human THP-1 cells incubated for 2 hrs followed by LPS stimulation and measured after 12 hrs by ELISA; type: functional
[4] = tested on: THP-1; test: Potency index, ratio of IC50 of N-oleoyldopamine-macamide to IC50 of compound for inhibition of LPS-induced TNFalpha production in human THP-1 cells incubated for 2 hrs followed by LPS stimulation and measured after 12 hrs by ELISA; type: functional
[5] = tested on: THP-1; test: Potency index, ratio of IC50 of C87 to IC50 of compound for inhibition of LPS-induced TNFalpha production in human THP-1 cells incubated for 2 hrs followed by LPS stimulation and measured after 12 hrs by ELISA; type: functional

pIC50 [2] | SMILES | CC50 at 72 h [1] [µM] | Ratio IC50 [3] | Ratio IC50 [4] | Ratio IC50 [5]
4.71 | CCCCC/C=C\C/C=C\CCCCCCCC(=O)NC(CC)c1ccccc1 (configuration not stated) | 96.5 | – | – | –
4.82 | CCCCCCCC/C=C\CCCCCCCC(=O)NCc1ccccc1 | 97.3 | – | – | –
6.48 | CCCCC/C=C\C/C=C\CCCCCCCC(=O)NC(C)c1cccc(C)c1 (configuration not stated) | 91.7 | – | – | –
5.05 | CCCCC/C=C\C/C=C\CCCCCCCC(=O)NNc1ccccc1 | 98.1 | – | – | –
5.28 | CCCCC/C=C\C/C=C\CCCCCCCC(=O)NC(C)c1ccccc1 (configuration not stated) [MALINAMIDE] | 95.8 | – | – | –
4.25 | CCCCC/C=C\C/C=C\CCCCCCCC(=O)NC(CO)c1ccccc1 (configuration not stated) | 98 | – | – | –
5.19 | CCCCC/C=C\C/C=C\CCCCCCCC(=O)OCc1ccccc1 | 95.4 | – | – | –
4.80 | CCCCC/C=C\C/C=C\CCCCCCCC(=O)NCCc1ccccc1 | 88.2 | – | – | –
5.08 | CCCCC/C=C\C/C=C\CCCCCCCC(=O)NCCCc1ccccc1 | 80.3 | – | – | –
4.85 | CCCCC/C=C\C/C=C\CCCCCCCC(=O)NCc1ccccc1 | 98.4 | – | – | –
4.88 | CCCCC/C=C\C/C=C\CCCCCCCC(=O)NC(C)(C)c1ccccc1 | 97.3 | – | – | –

Further lines, the compound ahead of its results:

SMILES | pIC50 [2] | CC50 at 72 h [1] [µM] | Ratio IC50 [3] | Ratio IC50 [4] | Ratio IC50 [5]
CCCCC/C=C\C/C=C\CCCCCCCC(=O)NC(C)c1ccc(F)cc1 (configuration not stated) | 6.11 | 82.5 | – | – | –
CCCCC/C=C\C/C=C\CCCCCCCC(=O)NC(C)c1ccc(C)cc1 (configuration not stated) | 6.21 | 95 | – | – | –
CCCCCCCC/C=C\CCCCCCCC(=O)O [OLEIC ACID] | 4.10 | 100 | – | – | –
CCCCCCCC(=O)NCc1ccccc1 | 4.23 | 100 | – | – | –
CCCCC/C=C\C/C=C\CCCCCCCC(=O)NC(C)C12CC3CC(CC(C3)C1)C2 (configuration not stated) | 6.11 | 90.9 | – | – | –
CCCCC/C=C\C/C=C\CCCCCCCC(=O)OC(C)c1cc(C)cc(C)c1 (configuration not stated) | 8.05 | 90.1 | 200 | 200 | 12
CCCCCCCCCCCCCCCC(=O)NCc1ccccc1 | 4.37 | 100 | – | – | –
CCCCC/C=C\C/C=C\CCCCCCCC(=O)NC(C)c1ccc(O)cc1 (configuration not stated) | 5.74 | 93.5 | – | – | –
CCCCC/C=C\C/C=C\CCCCCCCC(=O)NC(C)C(C)(C)C (configuration not stated) | 6.00 | 94.7 | – | – | –
CCCCCCCC/C=C\CCCCCCCC(=O)NCCc1ccc(O)c(O)c1 [OLEOYL DOPAMINE] | 5.45 | > 100 | – | – | –
CCCCC/C=C\C/C=C\CCCCCCCC(=O)Nc1ccccc1 | 4.68 | 97.8 | – | – | –
CCCCCCCCCCCCCCCCCC(=O)NCc1ccccc1 | 4.78 | 100 | – | – | –
CCCCC/C=C\C/C=C\CCCCCCCC(=O)NC(C)C1CCCCC1 (configuration not stated) | 6.15 | 93.2 | – | – | –
CCCCC/C=C\C/C=C\CCCCCCCC(=O)NC(C)c1ccc(CC)cc1 (configuration not stated) | 5.92 | 89.8 | – | – | –
CCCCC/C=C\C/C=C\CCCCCCCC(=O)NC(C)c1ccc(Br)cc1 (configuration not stated) | 6.13 | 81.4 | – | – | –
CCCCC/C=C\C/C=C\CCCCCCCC(=O)NC(C)c1cc(C)cc(C)c1 (configuration not stated) | 7.10 | 93.2 | – | – | –
